Source: patent US11753407B2, “Compounds for treating spinal muscular atrophy” (PTC Therapeutics, Inc., priority 2012, dated 2023)
Each block holds one compound with its values, some of them ahead of it.

Legend:
[1] = test system: Smn protein in SMA patient fibroblast cells (GM03813); assay: Smn protein assay in cultured cells (SMN HTRF); assay type: cell-based, human; settings: SMA patient fibroblast cells, 48 hours; for EC1.5x for Smn protein expression: 7-point concentration curve, SMN HTRF, concentration producing 1.5 times Smn protein vs DMSO vehicle control; for maximum fold (Fold) increase of Smn protein: 7-point concentration data, fold relative to vehicle control
In short: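 Smn protein quantified by HTRF with anti-SMN d2/kryptate pair, 665/620 nm ratio blank-corrected, in RIPA lysates of GM03813 fibroblasts after 48 h compound exposure (7 concentrations, 3.16-fold steps, triplicates). Values: concentration producing 1.5× vehicle Smn level, and maximal fold increase.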

[2] = test system: SMN2 minigene mRNA (SMN2-A minigene) in HEK293H cells; assay: SMN2 minigene mRNA splicing RT-qPCR assay in cultured cells; assay type: cell-based, human; settings: Homo sapiens, HEK293-H; concentration increasing full length SMN2 mRNA 1.5-fold relative to vehicle-treated cells; HEK293H cells with SMN2-A minigene, 24 hours, 7-point concentration data; read-out: EC1.5x for production of full length SMN2 mRNA
In short: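 EC1.5× = concentration raising full-length SMN2 minigene mRNA 1.5-fold over vehicle, from 7-point curves in duplicate. Stably transfected HEK293H cells exposed 24 h at 37 °C; lysates assayed by multiplex RT-qPCR, minigene FL signal normalized to GAPDH via modified ΔΔCt.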

SMILES: COc1ccc(-c2cc(=O)n3cc(C4=CCN(C)CC4)ccc3n2)cc1OC [Cpd 188, 2-(3,4-dimethoxyphenyl)-7-(1-methyl-1,2,3,6-tetrahydropyridin-4-yl)-4H-pyrido[1,2-a]pyrimidin-4-one]
melting point: 165 to 168 °C
EC1.5x for Smn protein expression [1]: *** (an EC1.5× between >0.3 μM and ≤1 μM is indicated by three stars (***))
maximum fold (Fold) increase of Smn protein [1]: ***** (a fold increase >1.65 is indicated by five stars (*****))
EC (1.5-fold increase) [2]: 0.1 to 0.3 µM

SMILES: C[C@H]1CN(c2ccc3nc(-c4cnn(C)c4)cc(=O)n3c2)CCN1 [Cpd 191, 7-[(3S)-3-methylpiperazin-1-yl]-2-(1-methyl-1H-pyrazol-4-yl)-4H-pyrido[1,2-a]pyrimidin-4-one]
melting point: 168 to 170 °C
EC1.5x for Smn protein expression [1]: ** (an EC1.5× between >1 μM and ≤3 μM is indicated by two stars (**))
maximum fold (Fold) increase of Smn protein [1]: **** (a fold increase between >1.5 and ≤1.65 is indicated by four stars (****))
EC (1.5-fold increase) [2]: 1 to 3 µM

SMILES: COc1ccc(-c2ccc3nc(N4CCNCC4)cc(=O)n3c2)cc1F [Cpd 220, 7-(3-fluoro-4-methoxyphenyl)-2-(piperazin-1-yl)-4H-pyrido[1,2-a]pyrimidin-4-one]
melting point: 202 to 206 °C
maximum fold (Fold) increase of Smn protein [1]: ** (a fold increase between >1.2 and ≤1.35 is indicated by two stars (**))
EC (1.5-fold increase) [2]: 0.3 to 1 µM

SMILES: COc1ccc(-c2cc(=O)n3cc(C4=CCNCC4)ccc3c2)cc1OC [Cpd 245, 2-(3,4-dimethoxyphenyl)-7-(1,2,3,6-tetrahydropyridin-4-yl)-4H-quinolizin-4-one]
melting point: 174 to 176 °C
maximum fold (Fold) increase of Smn protein [1]: ** (a fold increase between >1.2 and ≤1.35 is indicated by two stars (**))
EC (1.5-fold increase) [2]: 0.3 to 1 µM

SMILES: COc1ccc(-c2cc(=O)n3cc(C4=CCN(C)CC4)ccc3c2)cc1OC [Cpd 249, 2-(3,4-dimethoxyphenyl)-7-(1-methyl-1,2,3,6-tetrahydropyridin-4-yl)-4H-quinolizin-4-one]
melting point: 194 to 196 °C
maximum fold (Fold) increase of Smn protein [1]: * (A maximum fold increase of ≤1.2 is indicated by one star (*))
EC (1.5-fold increase) [2]: 0.3 to 1 µM

SMILES: COc1ccc(-c2ccc3nc(C4=CCNCC4)cc(=O)n3c2)cc1F [Cpd 294, 7-(3-fluoro-4-methoxyphenyl)-2-(1,2,3,6-tetrahydropyridin-4-yl)-4H-pyrido[1,2-a]pyrimidin-4-one]
melting point: 188 to 192 °C
EC1.5x for Smn protein expression [1]: * (An EC1.5× for Smn protein expression between >3 μM and ≤10 μM is indicated by one star (*))
maximum fold (Fold) increase of Smn protein [1]: *** (a fold increase between >1.35 and ≤1.5 is indicated by three stars (***))
EC (1.5-fold increase) [2]: < 0.1 µM

SMILES: Cc1cn2nc(-c3cc(=O)n4cc(C5=CCNCC5)ccc4n3)cc2c(C)n1 [Cpd 342, 2-(4,6-dimethylpyrazolo[1,5-a]pyrazin-2-yl)-7-(1,2,3,6-tetrahydropyridin-4-yl)-4H-pyrido[1,2-a]pyrimidin-4-one]
melting point: 207 to 210 °C
EC1.5x for Smn protein expression [1]: **** (an EC1.5x≤0.3 μM is indicated by four stars (****))
maximum fold (Fold) increase of Smn protein [1]: ***** (a fold increase >1.65 is indicated by five stars (*****))
EC (1.5-fold increase) [2]: < 0.1 µM

SMILES: Cc1nc2ccc(-c3cc(=O)n4nc(C5CCNCC5)ccc4n3)cc2s1.O=C(O)C(F)(F)F [Cpd 380, 2-(2-methyl-1,3-benzothiazol-6-yl)-7-(piperidin-4-yl)-4H-pyrimido[1,2-b]pyridazin-4-one trifluoroacetate (1:1)]
melting point: 230 to 235 °C
EC1.5x for Smn protein expression [1]: *** (an EC1.5× between >0.3 μM and ≤1 μM is indicated by three stars (***))
maximum fold (Fold) increase of Smn protein [1]: **** (a fold increase between >1.5 and ≤1.65 is indicated by four stars (****))
EC (1.5-fold increase) [2]: 0.1 to 0.3 µM

SMILES: COc1ccc(-c2cc(=O)n3nc(C4=CCNCC4)ccc3n2)cc1OC [Cpd 398, 2-(3,4-dimethoxyphenyl)-7-(1,2,3,6-tetrahydropyridin-4-yl)-4H-pyrimido[1,2-b]pyridazin-4-one]
melting point: 195 to 200 °C
EC1.5x for Smn protein expression [1]: ** (an EC1.5× between >1 μM and ≤3 μM is indicated by two stars (**))
maximum fold (Fold) increase of Smn protein [1]: ***** (a fold increase >1.65 is indicated by five stars (*****))
EC (1.5-fold increase) [2]: 0.3 to 1 µM

SMILES: COc1ccc(-c2cc(=O)n3cc(C4=CCNCC4)ncc3n2)cc1OC [Cpd 402, 2-(3,4-dimethoxyphenyl)-7-(1,2,3,6-tetrahydropyridin-4-yl)-4H-pyrazino[1,2-a]pyrimidin-4-one]
melting point: 205 to 208 °C
EC1.5x for Smn protein expression [1]: ** (an EC1.5× between >1 μM and ≤3 μM is indicated by two stars (**))
maximum fold (Fold) increase of Smn protein [1]: **** (a fold increase between >1.5 and ≤1.65 is indicated by four stars (****))
EC (1.5-fold increase) [2]: < 0.1 µM

SMILES: Cn1ncc2cc(-c3cc(=O)n4cc(C5=CCNCC5)ccc4n3)ccc21 [Cpd 443, 2-(1-methyl-1H-indazol-5-yl)-7-(1,2,3,6-tetrahydropyridin-4-yl)-4H-pyrido[1,2-a]pyrimidin-4-one]
melting point: 200 to 203 °C
EC1.5x for Smn protein expression [1]: **** (an EC1.5x≤0.3 μM is indicated by four stars (****))
maximum fold (Fold) increase of Smn protein [1]: ***** (a fold increase >1.65 is indicated by five stars (*****))
EC (1.5-fold increase) [2]: < 0.1 µM

More lines, main results first:

melting point: 166 to 170 °C
SMILES: COc1ncc(-c2cc(=O)n3cc(N4CCNCC4)ccc3n2)cc1F [Cpd 182, 2-(5-fluoro-6-methoxypyridin-3-yl)-7-(piperazin-1-yl)-4H-pyrido[1,2-a]pyrimidin-4-one]
EC1.5x for Smn protein expression [1]: *** (an EC1.5× between >0.3 μM and ≤1 μM is indicated by three stars (***))
maximum fold (Fold) increase of Smn protein [1]: **** (a fold increase between >1.5 and ≤1.65 is indicated by four stars (****))
EC (1.5-fold increase) [2]: 0.3 to 1 µM

melting point: 282 to 288 °C
SMILES: Cc1cn2cc(-c3cc(=O)n4cc(N5CCNCC5)ccc4n3)cc(F)c2n1 [Cpd 209, 2-(8-fluoro-2-methylimidazo[1,2-a]pyridin-6-yl)-7-(piperazin-1-yl)-4H-pyrido[1,2-a]pyrimidin-4-one]
EC1.5x for Smn protein expression [1]: **** (an EC1.5x≤0.3 μM is indicated by four stars (****))
maximum fold (Fold) increase of Smn protein [1]: **** (a fold increase between >1.5 and ≤1.65 is indicated by four stars (****))
EC (1.5-fold increase) [2]: < 0.1 µM

melting point: 221 to 224 °C
SMILES: COc1ccc(-c2cc(=O)n3cc(OC4CCNCC4)ccc3n2)cc1OC [Cpd 237, 2-(3,4-dimethoxyphenyl)-7-(piperidin-4-yloxy)-4H-pyrido[1,2-a]pyrimidin-4-one]
maximum fold (Fold) increase of Smn protein [1]: *** (a fold increase between >1.35 and ≤1.5 is indicated by three stars (***))
EC (1.5-fold increase) [2]: 1 to 3 µM

melting point: 143 to 149 °C
SMILES: COc1ccc(-c2cc(=O)n3cc(N(C)[C@@H]4CCN(C)C4)ccc3n2)cc1F [Cpd 239, 2-(3-fluoro-4-methoxyphenyl)-7-{methyl[(3R)-1-methylpyrrolidin-3-yl]amino}-4H-pyrido[1,2-a]pyrimidin-4-one]
maximum fold (Fold) increase of Smn protein [1]: * (A maximum fold increase of ≤1.2 is indicated by one star (*))
EC (1.5-fold increase) [2]: 1 to 3 µM

melting point: 146 to 150 °C
SMILES: COc1ccc(-c2cc(=O)n3cc(C4=CCCNC4)ccc3n2)cc1OC [Cpd 263, 2-(3,4-dimethoxyphenyl)-7-(1,2,5,6-tetrahydropyridin-3-yl)-4H-pyrido[1,2-a]pyrimidin-4-one]
EC1.5x for Smn protein expression [1]: *** (an EC1.5× between >0.3 μM and ≤1 μM is indicated by three stars (***))
maximum fold (Fold) increase of Smn protein [1]: **** (a fold increase between >1.5 and ≤1.65 is indicated by four stars (****))
EC (1.5-fold increase) [2]: 0.3 to 1 µM

melting point: 268 to 283 °C
SMILES: COc1ccc(-c2ccc3nc(N4CCC(N)CC4)cc(=O)n3c2)cc1F [Cpd 276, 2-(4-aminopiperidin-1-yl)-7-(3-fluoro-4-methoxyphenyl)-4H-pyrido[1,2-a]pyrimidin-4-one]
maximum fold (Fold) increase of Smn protein [1]: * (A maximum fold increase of ≤1.2 is indicated by one star (*))
EC (1.5-fold increase) [2]: 0.3 to 1 µM

melting point: 207 to 209 °C
SMILES: Cc1nc2c(F)cc(-c3cc(=O)n4cc(N5CCN[C@@H](C)C5)ccc4n3)cc2o1 [Cpd 306, 2-(4-fluoro-2-methyl-1,3-benzoxazol-6-yl)-7-[(3S)-3-methylpiperazin-1-yl]-4H-pyrido[1,2-a]pyrimidin-4-one]
EC1.5x for Smn protein expression [1]: **** (an EC1.5x≤0.3 μM is indicated by four stars (****))
maximum fold (Fold) increase of Smn protein [1]: ***** (a fold increase >1.65 is indicated by five stars (*****))
EC (1.5-fold increase) [2]: < 0.1 µM

melting point: 115 to 117 °C
SMILES: Cc1nc2ccc(-c3cc(=O)n4cc(N5CCN[C@@H](C)C5)ccc4c3)cc2o1 [Cpd 322, 2-(2-methyl-1,3-benzoxazol-6-yl)-7-[(3S)-3-methylpiperazin-1-yl]-4H-quinolizin-4-one]
EC1.5x for Smn protein expression [1]: *** (an EC1.5× between >0.3 μM and ≤1 μM is indicated by three stars (***))
maximum fold (Fold) increase of Smn protein [1]: **** (a fold increase between >1.5 and ≤1.65 is indicated by four stars (****))
EC (1.5-fold increase) [2]: < 0.1 µM

melting point: 178 to 184 °C
SMILES: CCCNC1CCN(c2cc(C)c3nc(-c4ccc(OC)c(OC)c4)cc(=O)n3c2)CC1 [Cpd 407, 2-(3,4-dimethoxyphenyl)-9-methyl-7-[4-(propylamino)piperidin-1-yl]-4H-pyrido[1,2-a]pyrimidin-4-one]
maximum fold (Fold) increase of Smn protein [1]: *** (a fold increase between >1.35 and ≤1.5 is indicated by three stars (***))
EC (1.5-fold increase) [2]: < 0.1 µM
